From ChEMBL document CHEMBL1131747, “Derivation of a possible transition-state for the reaction catalysed by the enzyme estrone Sulfatase (ES)” (Bioorg Med Chem Lett, 1999)

Molecular target: T1, Steryl-sulfatase (Homo sapiens, UniProt P08842)
T1 sequence (P08842 whole entry): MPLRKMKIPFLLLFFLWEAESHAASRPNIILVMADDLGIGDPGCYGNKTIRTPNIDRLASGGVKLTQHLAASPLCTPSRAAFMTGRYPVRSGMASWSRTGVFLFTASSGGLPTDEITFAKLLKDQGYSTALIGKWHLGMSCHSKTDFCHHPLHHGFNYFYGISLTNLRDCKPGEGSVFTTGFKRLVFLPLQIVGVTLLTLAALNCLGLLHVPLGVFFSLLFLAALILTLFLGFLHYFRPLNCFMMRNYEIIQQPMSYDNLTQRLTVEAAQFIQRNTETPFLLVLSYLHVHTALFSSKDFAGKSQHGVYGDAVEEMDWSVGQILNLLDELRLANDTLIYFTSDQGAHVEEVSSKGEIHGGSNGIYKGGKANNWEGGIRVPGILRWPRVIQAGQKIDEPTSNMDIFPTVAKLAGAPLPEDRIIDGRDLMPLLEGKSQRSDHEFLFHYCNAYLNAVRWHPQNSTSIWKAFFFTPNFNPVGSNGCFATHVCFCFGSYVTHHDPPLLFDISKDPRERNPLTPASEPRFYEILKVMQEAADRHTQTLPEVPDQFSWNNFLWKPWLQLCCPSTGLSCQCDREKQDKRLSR
Experiment: Inhibitory activity against estrone sulfatase enzyme

IC50	Compound
1000 nM	NS(=O)(=O)Oc1ccc2c(c1)CCCC2
55.8 nM	CCCCCCCCCCCCCC(=O)NCCc1ccc(OS(N)(=O)=O)cc1

Compound	IC50
C[C@]12CC[C@@H]3c4ccc(OS(N)(=O)=O)cc4CCC3[C@@H]1CCC2=O (single isomer, unassigned) [EMATE]	0.065 nM
